Measured values published in US11992558B2, “Controlled release formulation comprising flavoxate” (priority 2018, dated 2024).
Where two headings read alike, the source gives them in different places.

Key:
[1] = Solubility of flavoxate in various solvents at 20° C.; type: physicochemical
Procedure: (§1) Solubility of flavoxate hydrochloride was determined in various aqueous buffers, water, ethanol, acetone and ethyl ether at 20° C. and at ambient temperature (20 to 25° C.).

[2] = pH-dependent aqueous solubility at ambient temperature; type: physicochemical; conditions: 20 °C
Procedure: as §1

[3] = Flow properties of drug powder; type: physicochemical
Procedure: Tapped density • 2. Bulk density • 3. Compressibility Index and Hausner ratio • 4. Angle of repose Solubility: Flowability measures how uniformly the powder flows from the hopper into the tablet die and is an index of how well the tablet die will be filled to a constant volume. […] Similarly, the angle between the freestanding surface of a powder heap and horizontal plane is the angle of repose. […] flowability was less and could be improved with addition of lubricants during tablet-making. Results of tests to determine the Angle of repose (35°), Carr's index (33.3%), bulk density (0.236 gm/ml) and tapped density ([…]) indicate that the drug powder had poor flow properties.

[4] = Drug-excipient compatibility (Total RS); type: physicochemical
Procedure: Experiments were conducted to ascertain compatibility of the drug with commonly used excipients.

[5] = cited from earlier work

In the case of Cc1c(-c2ccccc2)oc2c(C(=O)OCCN3CCCCC3)cccc2c1=O.Cl [flavoxate, 2-piperidinoethyl-3-methylflavone 8-carboxylate hydrochloride], the Solubility % w/v ([1]; Acetone) was “Insoluble”, the Solubility % w/v ([1]; Chloroform) was 2.50 % w/v and the Solubility % w/v ([1]; Ethanol) was 0.20 % w/v. The Solubility % w/v ([1]; Ethyl Ether) was “Insoluble”, the Solubility % w/v ([1]; Methanol) was 0.90 % w/v and the solubility ([1]; Water, read-out: Solubility % w/v) was 7500 µg/mL. The solubility ([2]; aqueous buffer, 0.05N Phosphate Buffer, pH 2.5, 20 to 25° C.) was 7640 µg/mL, the solubility ([2]; aqueous buffer, 0.05N Phosphate Buffer, pH 4.5, 20 to 25° C.) was 13700 µg/mL and the solubility ([2]; aqueous buffer, 0.05N Phosphate Buffer, pH 6.0, 20 to 25° C.) was 15400 µg/mL. The solubility ([2]; aqueous buffer, 0.05N Phosphate Buffer, pH 6.8, 20 to 25° C.) was 6170 µg/mL, the solubility ([2]; aqueous buffer, 0.05N Phosphate Buffer, pH 7.2, 20 to 25° C.) was 1040 µg/mL and the solubility ([2]; aqueous buffer, 0.05N Phosphate Buffer, pH 7.5, 20 to 25° C.) was 580 µg/mL. For the same compound, the solubility ([2]; simulated gastric fluid, 0.1N HCl, pH 1.2, 20 to 25° C.) was 570 µg/mL, the solubility ([2]; Water, pH 5.7, 20 to 25° C.) was 11300 µg/mL and the Angle of repose [3] was 35 °. For the same compound, the “Carr's index” value [3] was 33.3%, the bulk density [3] was 0.236 gm/ml and the tapped density [3] was 0.355 g/mL. For the same compound, the “Total R.S. (%) 30 D/40° C./75% RH*” value ([4]; 30 days at 40° C. and 75% relative humidity) was 0.04%, the “Total R.S. (%) Initial” value ([4]; initial) was 0.02% and the “duration of therapeutic activity” value ([5]; in vivo) was 5 to 6 h. The “free flavoxate in urine” value ([5]; in vivo) was “No free flavoxate was found”, the “time of peak level of MFCA” value ([5]; oral 400 mg dose) was “around two hours” and the “time of peak level of MFCA” value ([5]; oral administration of 200 mg dose) was 30 to 60 min. The “dose excreted as MFCA within 12 hours” value ([5]; oral, within 12 hours) was “About 50%” and the “dose excreted as MFCA” value ([5]; urine, 24 hours, intravenous) was 47%.

For Cc1c(-c2ccccc2)oc2c(C(=O)O)cccc2c1=O [MFCA, 3-methylflavone-8-carboxylic acid], the “half-life t½” value ([5]; MFCA) is listed as 3.5 h.
